# No end group written: not given here.
# Tests used:
# [1] = tested on: HCV-peptide specific IFN-γ production by CD4+ and CD8+ T cells; type: in vivo, HLA-A*0201 transgenic mice (HHD.1); conditions: HHD.1 mice; co-injection of the five HCV-derived peptides (20 μg each) with KLK 10 nmol/o-d(IC)13 0.4 nmol s.c. days 0, 14, 28; day 35
# Procedure: Experimental setup (5 mice/group): • 1. HCV peptides • 2. HCV peptides+KLK+o-d(IC)13
# On days 0, 14 and 28 HHD.1 mice were injected s.c. into both hind footpads with a total volume of 100 μl/mouse (50 μl/footpad) containing the above listed compounds. At day 35 (7 days after last vaccination) CD4^+ as well as CD8^+ T cells were isolated by magnetic separation (MACS, Miltenyi) from single cell suspensions of spleen cells. T cells were incubated with medium (background control) or were restimulated with irradiated spleen cells from naïve HHD.1 mice as APC in the presence of either the different peptides used for vaccination or the irrelevant peptide p1274. After overnight incubation, the IFN-γ production was analyzed using an ELIspot assay.
# [2] = tested on: peptide-specific IFN-γ producing cells; parameters: species or system C57B1/6 mice; conditions: mouse, in vivo, sc
# [3] = tested on: Staphylococcus aureus; conditions: literature (Nakajima 1997; Cho 1999); cited from earlier work
# [4] = tested on: human neutrophils; conditions: cited from earlier work
# [5] = tested on: Influenza vaccine (Fluvirin)-specific IgG1 and IgG2b antibodies; parameters: species or system C57BL/6 mice; conditions: mouse, in vivo, sc
# [6] = tested on: HBsAg-specific IFN-γ and IL-4 production; type: in vivo, C57BL/6 mice; conditions: C57BL/6, s.c. flank day 0 and 56; co-injected with HBsAg 5 μg/mouse; Alum, pR and KLK: after boost
# Procedure: Experimental setup (5 mice/group/timepoint): • 1. HBsAg • 2. HBsAg+Alum • 3. HBsAg+I-ODN 2 • 4. HBsAg+I-ODN 2b • 5. HBsAg+o-d(IC)13 • 6. HBsAg+pR • 7. HBsAg+KLK • 8. HBsAg+pR+I-ODN 2 • 9. HBsAg+pR+I-ODN 2b • 10. HBsAg+pR+o-d(IC)13 • 11. HBsAg+KLK+I-ODN 2 • 12. HBsAg+KLK+I-ODN 2b • 13. HBsAg+KLK+o-d(IC)13
# On day 0 and day 56 mice were injected subcutaneously into the right flank with a total volume of 100 μl/mouse containing the above mentioned compounds. The analysis of the immune response was performed at day 7, day 21 and day 50 after first and second injection, respectively. Spleen cells of five mice per group per time point were restimulated ex vivo with 10 μg/ml HBsAg and ELIspot assays were performed in order to analyse the HBsAg-specific IFN-γ (type 1 immune response) as well as IL-4 (type 2 immune response) production.
substance,measurement,setting,value
CINGVCWTV [p89],IFN-γ produced by CD4+ T cells against the peptide (ELIspot),[1],high amounts
same,IFN-γ production by CD8+ T cells against the peptide (ELIspot),[1],strong
DLMGYIPAV [p87],IFN-γ produced by CD4+ T cells against the peptide (ELIspot),[1],high amounts
same,IFN-γ production by CD8+ T cells against the peptide (ELIspot),[1],strong
GYKVLVLNPSVAAT [p84],IFN-γ produced by CD4+ T cells against the peptide (ELIspot),[1],high amounts
HMWNFISGIQYLAGLSTLPGNPA [p1426],IFN-γ produced by CD4+ T cells against the peptide (ELIspot),[1],high amounts
"IASNENMETM [p1574, reference compound]",peptide-specific IFN-γ spots of spleen cells after restimulation with the respective peptide (ELIspot),[2],do not show any specific spots
KLKLLLLLKLK-NH2,chemotherapeutic activity in Staphylococcus aureus-infected mice,[3],significant chemotherapeutic activity
same,production of the superoxide anion (O2−) by human neutrophils via cell surface calreticulin,[4],activated to produce the superoxide anion
KLKLLLLLKLK-OH,"Influenza vaccine-specific IgG1 (type 2 response), serum ELISA",[5],induces the production of Influenza vaccine-specific IgG1
same,"Influenza vaccine-specific IgG2b (humoral type 1 response), serum ELISA",[5],no specific IgG2b response is detectable
same,"HBsAg-specific IL-4 production (type 2 immune response) compared to injection of HBsAg alone, spleen cell ELIspot",[6],Slightly increased
"Poly-L-Arginine [pR, reference compound]","Influenza vaccine-specific IgG2b (humoral type 1 response), serum ELISA",[5],no specific IgG2b response is detectable
same,"HBsAg-specific IL-4 production (type 2 immune response) compared to injection of HBsAg alone, spleen cell ELIspot",[6],Slightly increased
SSIAAQDAL [p1600],peptide-specific IFN-γ spots of spleen cells after restimulation with the respective peptide (ELIspot),[2],do not show any specific spots
TMLYNKMEF [p1569],peptide-specific IFN-γ spots of spleen cells after restimulation with the respective peptide (ELIspot),[2],specifically release IFN-γ
VTILNLALL [p1664],peptide-specific IFN-γ spots of spleen cells after restimulation with the respective peptide (ELIspot),[2],specifically release IFN-γ

# — patent US7704514B2 (priority 2003, dated 2010)
